We go through 16 compounds from patent US20230295157A1, “3-(1H-IMIDAZOL-2-YL)-2,3,8,8A-TETRAHYDROINDOLIZIN-5(1H)-ONE DERIVATIVES USEFUL AS FACTOR XIA INHIBITORS” (JANSSEN PHARMACEUTICA NV, priority 2020, published 2023).

pIC50: −log10 of the molar value.

One test has as its target human plasma kallikrein (Homo sapiens (Human), UniProt P03952). In words: Kallikrein inhibition assay (FLINT) utilizing a quenched AMC peptide substrate. As to conditions: 30 min preincubation, kinetic reads over 30 min, Z-Gly-Pro-Arg-AMC substrate 50 μM; read-out: Kallikrein Kin Inh IC50. The test is classed as biochemical. The procedure, abridged:
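Fluorogenic Z-Gly-Pro-Arg-AMC cleavage (50 μM substrate, 2 nM kallikrein, Tris pH 7.5, CaCl2, BSA, CHAPS, 2% DMSO) read kinetically at 340/440 nm for 30 min after 30-min compound pre-incubation. Compounds in 11-point 3-fold series from 1 μM; percent inhibition fitted to four-parameter equation for IC50.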

Another test concerns the target Factor XIa (Homo sapiens (Human), UniProt P03951). As to the kind of experiment: Factor XIa inhibition assay (FLINT) utilizing a fluorophore-quencher pair peptide substrate. In kind it is biochemical. As to conditions: 30 min preincubation, kinetic reads over 30 min, 5Fam-KLTRAETV-K5Tamra substrate 15 μM; read-out: FXIa Kin Inh IC50. The procedure, abridged: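 FXIa ([…]) preincubated 30 min with compound (11-point 3-fold dilution, top 100 nM, 2% DMSO), then 15 μM quenched FXI Arg146-based peptide added; Tris pH 7.5, CaCl2, BSA, CHAPS. Fluorescence 485/520 nm read kinetically every 5 min over 30 min at RT; IC50 by 4-parameter fit.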

Chain of human plasma kallikrein (P03952 391-638): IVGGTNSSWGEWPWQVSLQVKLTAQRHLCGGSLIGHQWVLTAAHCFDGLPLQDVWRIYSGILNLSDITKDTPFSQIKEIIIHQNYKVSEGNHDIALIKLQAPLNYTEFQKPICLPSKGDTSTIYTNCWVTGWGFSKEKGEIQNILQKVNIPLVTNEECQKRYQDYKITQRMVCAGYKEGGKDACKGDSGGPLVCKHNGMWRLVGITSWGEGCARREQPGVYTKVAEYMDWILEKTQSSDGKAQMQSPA
Chain of human plasma kallikrein (P03952 20-390 partner): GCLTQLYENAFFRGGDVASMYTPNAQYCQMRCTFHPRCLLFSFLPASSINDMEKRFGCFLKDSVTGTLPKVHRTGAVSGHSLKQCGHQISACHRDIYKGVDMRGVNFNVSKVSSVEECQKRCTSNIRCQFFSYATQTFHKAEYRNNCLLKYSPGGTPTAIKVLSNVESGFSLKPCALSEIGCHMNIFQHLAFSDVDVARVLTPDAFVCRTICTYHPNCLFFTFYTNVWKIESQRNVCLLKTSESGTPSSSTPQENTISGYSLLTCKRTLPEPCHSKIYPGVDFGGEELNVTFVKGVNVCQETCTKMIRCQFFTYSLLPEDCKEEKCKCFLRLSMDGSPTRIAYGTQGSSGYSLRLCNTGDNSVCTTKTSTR
Chain of Factor XIa (P03951 388-625): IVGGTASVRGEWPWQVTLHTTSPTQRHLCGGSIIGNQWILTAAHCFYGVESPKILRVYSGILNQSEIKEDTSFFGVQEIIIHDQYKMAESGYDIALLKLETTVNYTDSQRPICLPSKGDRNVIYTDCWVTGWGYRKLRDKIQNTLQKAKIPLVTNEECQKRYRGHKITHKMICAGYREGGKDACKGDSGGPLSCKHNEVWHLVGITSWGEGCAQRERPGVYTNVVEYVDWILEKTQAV
Chain of Factor XIa (P03951 19-387 partner): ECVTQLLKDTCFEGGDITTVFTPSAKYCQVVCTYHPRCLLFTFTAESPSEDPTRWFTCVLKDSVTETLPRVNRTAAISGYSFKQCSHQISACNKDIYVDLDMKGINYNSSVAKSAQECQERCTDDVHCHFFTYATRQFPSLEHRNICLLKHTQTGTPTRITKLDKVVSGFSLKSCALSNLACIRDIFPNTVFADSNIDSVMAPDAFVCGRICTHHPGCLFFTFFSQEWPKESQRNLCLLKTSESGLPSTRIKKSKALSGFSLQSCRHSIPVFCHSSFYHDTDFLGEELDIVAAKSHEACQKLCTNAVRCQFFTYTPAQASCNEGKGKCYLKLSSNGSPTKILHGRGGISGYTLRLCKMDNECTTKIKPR

As to `O=C(Nc1cnccc1-c1c[nH]c([C@@H]2CCC3CC(c4c(-n5cnnn5)ccc(Cl)c4F)=CC(=O)N32)n1)C1CC1` (stereo partly drawn) [Example 370, N-(4-(2-((3S)-7-(3-chloro-2-fluoro-6-(1H-tetrazol-1-yl)phenyl)-5-oxo-1,2,3,5,8,8a-hexahydroindolizin-3-yl)-1H-imidazol-4-yl)pyridin-3-yl)cyclopropanecarboxamide], the negative logarithm of the IC50 (pIC50) on human plasma kallikrein was 9.05; at Factor XIa, 9.70.

Turning to `O=C1C=C(c2c(-n3cnnn3)ccc(Cl)c2F)C[C@H]2CC[C@@H](c3ncc(-c4cc(F)ncc4Cl)[nH]3)N12` [Example 371, (3S,8aR)-7-(3-chloro-2-fluoro-6-(1H-tetrazol-1-yl)phenyl)-3-(5-(5-chloro-2-fluoropyridin-4-yl)-1H-imidazol-2-yl)-2,3,8,8a-tetrahydroindolizin-5(1H)-one], the pIC50 on human plasma kallikrein is 7.25; at Factor XIa it was 7.44.

`Nc1cc(-c2[nH]c([C@@H]3CC[C@@H]4CC(c5c(-n6cnnn6)ccc(Cl)c5F)=CC(=O)N43)nc2Cl)ccn1` [Example 372, (3S,8aR)-3-(5-(2-aminopyridin-4-yl)-4-chloro-1H-imidazol-2-yl)-7-(3-chloro-2-fluoro-6-(1H-tetrazol-1-yl)phenyl)-2,3,8,8a-tetrahydroindolizin-5(1H)-one]: the negative-log IC50 (pIC50) on human plasma kallikrein was 8.92; on Factor XIa, 9.52.

As for `O=C(O)c1ccc(-c2c[nH]c(C3CCC4CC(c5cc(Cl)ccc5-n5cc(C(F)(F)F)nn5)=CC(=O)N43)n2)s1` (centres unmarked) [Example 373, 5-(2-(7-(5-chloro-2-(4-(trifluoromethyl)-1H-1,2,3-triazol-1-yl)phenyl)-5-oxo-1,2,3,5,8,8a-hexahydroindolizin-3-yl)-1H-imidazol-4-yl)thiophene-2-carboxylic acid], the results for the negative logarithm of the IC50 (pIC50) at human plasma kallikrein and at Factor XIa were 7.40 and 9.15, respectively.

As for `CC1=CCc2c(-c3cnc(C4CCC5CC(c6c(-n7cnnn7)ccc(Cl)c6F)=CC(=O)N54)[nH]3)ccnc21` (centres unmarked) [Example 374, 7-(3-chloro-2-fluoro-6-(1H-tetrazol-1-yl)phenyl)-3-(5-(7-methyl-5H-cyclopenta[b]pyridin-4-yl)-1H-imidazol-2-yl)-2,3,8,8a-tetrahydroindolizin-5(1H)-one], the pIC50 was 8.82 at human plasma kallikrein and 9.10 at Factor XIa.

With `Nc1ccc(-c2cnc([C@@H]3CC[C@@H]4CC(c5cc(Cl)ccc5-n5cnnn5)CC(=O)N43)[nH]2)c(F)n1` (stereo partly drawn) [Example 376, (3S,8aR)-3-(5-(6-amino-2-fluoropyridin-3-yl)-1H-imidazol-2-yl)-7-(5-chloro-2-(1H-tetrazol-1-yl)phenyl)hexahydroindolizin-5(1H)-one], the pIC50 on human plasma kallikrein is 6.68; at Factor XIa, 8.14.

Turning to `O=C1C[C@H](c2c(-n3cnnn3)ccc(Cl)c2F)C[C@H]2CC[C@@H](c3ncc(-c4ccnc(CO)c4F)[nH]3)N12` [Example 378, (3S,7R,8aR)-7-(3-chloro-2-fluoro-6-(1H-tetrazol-1-yl)phenyl)-3-(5-(3-fluoro-2-(hydroxymethyl)pyridin-4-yl)-1H-imidazol-2-yl)hexahydroindolizin-5(1H)-one], the negative-log IC50 (pIC50) at human plasma kallikrein is 6.94; at Factor XIa, 7.84.

As to `O=C1C=C(c2c(-n3cnnn3)ccc(Cl)c2F)C[C@H]2CC[C@@H](c3ncc(-c4c[nH]c5ncncc45)[nH]3)N12` [Example 379, (3S,8aR)-3-(5-(7H-pyrrolo[2,3-d]pyrimidin-5-yl)-1H-imidazol-2-yl)-7-(3-chloro-2-fluoro-6-(1H-tetrazol-1-yl)phenyl)-2,3,8,8a-tetrahydroindolizin-5(1H)-one], the pIC50 on human plasma kallikrein was 8.66; at Factor XIa, 9.22.

In the case of `Nc1nccc(-c2cnc([C@@H]3CC[C@@H]4CC(c5c(-n6cnnn6)ccc(Cl)c5F)=CC(=O)N43)[nH]2)c1Cl` [Example 380, (3S,8aR)-3-(5-(2-amino-3-chloropyridin-4-yl)-1H-imidazol-2-yl)-7-(3-chloro-2-fluoro-6-(1H-tetrazol-1-yl)phenyl)-2,3,8,8a-tetrahydroindolizin-5(1H)-one], the values for the pIC50 on human plasma kallikrein and on Factor XIa were 8.38 and 9.10, respectively.

`Cc1cc2c(-c3cnc([C@@H]4CCC5CC(c6c(-n7cnnn7)ccc(Cl)c6F)=CC(=O)N54)[nH]3)c[nH]c2cn1` (stereo partly drawn) [Example 381, (3S)-7-(3-chloro-2-fluoro-6-(1H-tetrazol-1-yl)phenyl)-3-(5-(5-methyl-1H-pyrrolo[2,3-c]pyridin-3-yl)-1H-imidazol-2-yl)-2,3,8,8a-tetrahydroindolizin-5(1H)-one]: the values for the negative logarithm of the IC50 (pIC50) at human plasma kallikrein and at Factor XIa were 7.87 and 7.77, respectively.

For the compound `O=C1Cc2ccc(-c3cnc([C@@H]4CCC5CC(c6c(-n7cnnn7)ccc(Cl)c6F)=CC(=O)N54)[nH]3)c(F)c2N1` (stereo partly drawn) [Example 383, 6-(2-((3S)-7-(3-chloro-2-fluoro-6-(1H-tetrazol-1-yl)phenyl)-5-oxo-1,2,3,5,8,8a-hexahydroindolizin-3-yl)-1H-imidazol-5-yl)-7-fluoroindolin-2-one], the negative-log IC50 (pIC50) at human plasma kallikrein is 7.90; at Factor XIa, 8.51.

Turning to `O=C1C=C(c2c(-n3cnnn3)ccc(Cl)c2F)C[C@H]2CC[C@@H](c3ncc(-c4ccc5cc[nH]c5c4F)[nH]3)N12` [Example 384, (3S,8aR)-7-(3-chloro-2-fluoro-6-(1H-tetrazol-1-yl)phenyl)-3-(5-(7-fluoro-1H-indol-6-yl)-1H-imidazol-2-yl)-2,3,8,8a-tetrahydroindolizin-5(1H)-one], the figures for the pIC50 at human plasma kallikrein and on Factor XIa were 8.18 and 8.77, respectively.

`O=C1C=C(c2c(-n3cc(C(F)(F)F)nn3)ccc(Cl)c2F)C[C@H]2CC[C@@H](c3ncc(-c4c[nH]c5ccncc45)[nH]3)N12` [Example 385, (3S,8aR)-3-(5-(1H-pyrrolo[3,2-c]pyridin-3-yl)-1H-imidazol-2-yl)-7-(3-chloro-2-fluoro-6-(4-(trifluoromethyl)-1H-1,2,3-triazol-1-yl)phenyl)-2,3,8,8a-tetrahydroindolizin-5(1H)-one]: the pIC50 on human plasma kallikrein is 7.57; at Factor XIa, 8.44.

For `O=C1C=C(c2c(-n3cnnn3)ccc(Cl)c2F)C[C@H]2CC[C@@H](c3ncc(-c4ccnc5c4CCO5)[nH]3)N12` [Example 386, (3S,8aR)-7-(3-chloro-2-fluoro-6-(1H-tetrazol-1-yl)phenyl)-3-(5-(2,3-dihydrofuro[2,3-b]pyridin-4-yl)-1H-imidazol-2-yl)-2,3,8,8a-tetrahydroindolizin-5(1H)-one], the figures for the pIC50 on human plasma kallikrein and at Factor XIa were 8.02 and 8.89, respectively.

Consider `O=C1C=C(c2c(-n3cnnn3)ccc(Cl)c2F)C[C@H]2CC[C@@H](c3ncc(-c4ccnc5ccsc45)[nH]3)N12` [Example 387, (3S,8aR)-7-(3-chloro-2-fluoro-6-(1H-tetrazol-1-yl)phenyl)-3-(5-(thieno[3,2-b]pyridin-7-yl)-1H-imidazol-2-yl)-2,3,8,8a-tetrahydroindolizin-5(1H)-one], for which the pIC50 at human plasma kallikrein was 8.42; at Factor XIa, 8.89.

Consider `COc1cc2[nH]cc(-c3cnc([C@@H]4CC[C@@H]5CC(c6c(-n7cnnn7)ccc(Cl)c6F)=CC(=O)N54)[nH]3)c2cn1` [Example 388, (3S,8aR)-7-(3-chloro-2-fluoro-6-(1H-tetrazol-1-yl)phenyl)-3-(5-(6-methoxy-1H-pyrrolo[3,2-c]pyridin-3-yl)-1H-imidazol-2-yl)-2,3,8,8a-tetrahydroindolizin-5(1H)-one], for which the pIC50 is 8.72 at human plasma kallikrein and 9.30 on Factor XIa.
